{
  "source": "PubChem BioAssay (NCI)",
  "note": "Values joined by “and” are separate entries in the source; they are usually repeats but may differ in a detail not shown here. Equal values may be shown once.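 Protocol summary: plate cells (96-well), add compound at 5 concentrations, incubate 48 h, interpolate endpoints linearly. GI50 marks 50% less growth. The concentration for full growth arrest is given as TGI.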",
  "data": [
    {"tested_on": "MOLT-4 leukemia", "assay": "NCI anticancer screen, dose series, 48 h", "values": [
      {"smiles": "CC(C)(C)c1cc(NC(=O)Cc2ccc(-c3cnc4cc(-c5cnn(CCN6CCOCC6)c5)ccc4n3)cc2)no1", "GI50": "260 nM and 429 nM and 115 nM", "TGI": "50 µM and > 100 µM and > 3 µM"},
      {"smiles": "Cc1ccc2[nH]c(C(=O)NN3C(=O)C(C)SC34CCCC(C)C4)c(-c3ccccc3)c2c1", "note": "(centres undefined)", "GI50": "19300 nM", "TGI": "> 100 µM"}
    ]},
    {"tested_on": "SNB-75 CNS", "assay": "NCI anticancer screen, dose series, 48 h", "values": [
      {"smiles": "COc1ccc(/C(Cl)=C(\\C=O)c2ccc([N+](=O)[O-])cc2)cc1", "TGI": "30.9 µM"},
      {"smiles": "Clc1ccc(-c2c(C3=NCCCN3)nnn2-c2ccc(Cl)cc2)cc1", "TGI": "> 72.2 µM"},
      {"smiles": "CC1=N/C(=C\\c2cccc([N+](=O)[O-])c2)C(=O)O1", "TGI": "91 µM"},
      {"smiles": "COc1cc2c(c(OC)c1)C1(CC(CC#N)C2)SCCS1", "note": "(centres undefined)", "TGI": "> 100 µM"},
      {"smiles": "CCOC(=O)CCn1[nH]c(=O)c(Cl)c(Cl)c1=O", "TGI": "> 100 µM"},
      {"smiles": "Nc1ncn(C2CC(O)C(CO)O2)c(=O)n1", "note": "(centres undefined)", "TGI": "> 288 µM"},
      {"smiles": "C/C=C1/C(=C/c2[nH]c(/C=c3\\[nH]/c(=C/C4=NC(=O)C(CC)=C4C)c(C)c3CCC(=O)O)c(CCC(=O)O)c2C)NC(=O)C1C", "note": "(centres undefined)", "GI50": "> 150 µg/mL", "TGI": "> 150 µg/mL"},
      {"smiles": "N#CCc1ccc(C(C#N)/C(CCCC(=O)Nc2cccc([N+](=O)[O-])c2)=N/NC(N)=S)cc1", "note": "(centres undefined)", "TGI": "> 100 µM"},
      {"smiles": "CC(C)c1ccc(C(c2ccc(OCC(=O)O)cc2)c2ccc(C(C)C)cc(=O)c2O)c(O)c(=O)c1", "TGI": "16.2 µM"},
      {"smiles": "COc1ccc2c3c(coc13)C(CCC(=O)O)CC2", "note": "(centres undefined)", "TGI": "> 100 µM"},
      {"smiles": "O=c1[nH]c(=O)n(C2OC(CO)C(O)C(O)C2O)cc1F", "note": "(centres undefined)", "TGI": "> 100 µM"},
      {"smiles": "c1cc[c]([Pb]([c]2ccccc2)[c]2ccccc2)cc1", "GI50": "6.8 µM", "TGI": "45 µM"},
      {"smiles": "CC(C)(C)c1ccc(O)c(CN(Cc2cc(C(C)(C)C)ccc2O)c2ccccc2)c1", "TGI": "52.4 µM"},
      {"smiles": "COC1=CC2(C=CC1=O)c1cc(OC)c(OC)cc1CCN2C(=O)c1ccccc1", "note": "(centres undefined)", "TGI": "> 100 µM"},
      {"smiles": "CC(C)(C)c1cc(NC(=O)Cc2ccc(-c3cnc4cc(-c5cnn(CCN6CCOCC6)c5)ccc4n3)cc2)no1", "TGI": "4.39 µM and 38.4 µM and > 3 µM"},
      {"smiles": "Cc1ccc2[nH]c(C(=O)NN3C(=O)C(C)SC34CCCC(C)C4)c(-c3ccccc3)c2c1", "note": "(centres undefined)", "GI50": "60.1 µM", "TGI": "> 100 µM"}
    ]},
    {"tested_on": "UACC-257 melanoma", "assay": "NCI anticancer screen, dose series, 48 h", "units": {"GI50": "µM"}, "values": [
      {"smiles": "COc1ccc(/C(Cl)=C(\\C=O)c2ccc([N+](=O)[O-])cc2)cc1", "TGI": "64.9 µM"},
      {"smiles": "Clc1ccc(-c2c(C3=NCCCN3)nnn2-c2ccc(Cl)cc2)cc1", "TGI": "44.1 µM"},
      {"smiles": "Fc1ccc(C2SCc3nc4ccccc4n32)cc1Cl", "note": "(centres undefined)", "TGI": "56.7 µM"},
      {"smiles": "CC1=N/C(=C\\c2cccc([N+](=O)[O-])c2)C(=O)O1", "TGI": "> 100 µM"},
      {"smiles": "CCCCOC(=O)NC(=O)c1cn(C2CCCCC2)c(=O)[nH]c1=O", "TGI": "> 100 µM"},
      {"smiles": "COc1cc2c(c(OC)c1)C1(CC(CC#N)C2)SCCS1", "note": "(centres undefined)", "TGI": "> 100 µM"},
      {"smiles": "CCOC(=O)CCn1[nH]c(=O)c(Cl)c(Cl)c1=O", "TGI": "> 100 µM"},
      {"smiles": "Nc1ncn(C2CC(O)C(CO)O2)c(=O)n1", "note": "(centres undefined)", "TGI": "131 µM"},
      {"smiles": "N#CCc1ccc(C(C#N)/C(CCCC(=O)Nc2cccc([N+](=O)[O-])c2)=N/NC(N)=S)cc1", "note": "(centres undefined)", "TGI": "> 100 µM"},
      {"smiles": "CC(C)c1ccc(C(c2ccc(OCC(=O)O)cc2)c2ccc(C(C)C)cc(=O)c2O)c(O)c(=O)c1", "TGI": "41.6 µM"},
      {"smiles": "COc1ccc2c3c(coc13)C(CCC(=O)O)CC2", "note": "(centres undefined)", "TGI": "> 100 µM"},
      {"smiles": "O=c1[nH]c(=O)n(C2OC(CO)C(O)C(O)C2O)cc1F", "note": "(centres undefined)", "TGI": "> 100 µM"},
      {"smiles": "c1cc[c]([Pb]([c]2ccccc2)[c]2ccccc2)cc1", "GI50": 19, "TGI": "59.1 µM"},
      {"smiles": "CC(C)(C)c1ccc(O)c(CN(Cc2cc(C(C)(C)C)ccc2O)c2ccccc2)c1", "TGI": "12.4 µM"},
      {"smiles": "COC1=CC2(C=CC1=O)c1cc(OC)c(OC)cc1CCN2C(=O)c1ccccc1", "note": "(centres undefined)", "TGI": "> 100 µM"},
      {"smiles": "CC(C)(C)c1cc(NC(=O)Cc2ccc(-c3cnc4cc(-c5cnn(CCN6CCOCC6)c5)ccc4n3)cc2)no1", "TGI": "50 µM and > 100 µM and > 3 µM"},
      {"smiles": "Cc1ccc2[nH]c(C(=O)NN3C(=O)C(C)SC34CCCC(C)C4)c(-c3ccccc3)c2c1", "note": "(centres undefined)", "GI50": 66.8, "TGI": "> 100 µM"}
    ]},
    {"tested_on": "DMS 273 small cell lung", "assay": "NCI anticancer screen, dose series, 48 h", "values": [
      {"smiles": "COc1ccc(/C(Cl)=C(\\C=O)c2ccc([N+](=O)[O-])cc2)cc1", "TGI": "58.7 µM"},
      {"smiles": "Clc1ccc(-c2c(C3=NCCCN3)nnn2-c2ccc(Cl)cc2)cc1", "TGI": "> 100 µM"},
      {"smiles": "CCCCOC(=O)NC(=O)c1cn(C2CCCCC2)c(=O)[nH]c1=O", "TGI": "> 100 µM"},
      {"smiles": "COc1cc2c(c(OC)c1)C1(CC(CC#N)C2)SCCS1", "note": "(centres undefined)", "TGI": "> 100 µM"},
      {"smiles": "CCOC(=O)CCn1[nH]c(=O)c(Cl)c(Cl)c1=O", "TGI": "> 100 µM"},
      {"smiles": "C/C=C1/C(=C/c2[nH]c(/C=c3\\[nH]/c(=C/C4=NC(=O)C(CC)=C4C)c(C)c3CCC(=O)O)c(CCC(=O)O)c2C)NC(=O)C1C", "note": "(centres undefined)", "GI50": "> 150 µg/mL", "TGI": "> 150 µg/mL"},
      {"smiles": "N#CCc1ccc(C(C#N)/C(CCCC(=O)Nc2cccc([N+](=O)[O-])c2)=N/NC(N)=S)cc1", "note": "(centres undefined)", "TGI": "> 100 µM"},
      {"smiles": "CC(C)c1ccc(C(c2ccc(OCC(=O)O)cc2)c2ccc(C(C)C)cc(=O)c2O)c(O)c(=O)c1", "TGI": "11.2 µM"},
      {"smiles": "COc1ccc2c3c(coc13)C(CCC(=O)O)CC2", "note": "(centres undefined)", "TGI": "> 100 µM"},
      {"smiles": "c1cc[c]([Pb]([c]2ccccc2)[c]2ccccc2)cc1", "GI50": "10.4 µM", "TGI": "27.8 µM"},
      {"smiles": "COC1=CC2(C=CC1=O)c1cc(OC)c(OC)cc1CCN2C(=O)c1ccccc1", "note": "(centres undefined)", "TGI": "> 100 µM"}
    ]},
    {"tested_on": "NCI-H23 lung", "assay": "NCI anticancer screen, dose series, 48 h", "values": [
      {"smiles": "COc1ccc(/C(Cl)=C(\\C=O)c2ccc([N+](=O)[O-])cc2)cc1", "TGI": "50.6 µM"},
      {"smiles": "Clc1ccc(-c2c(C3=NCCCN3)nnn2-c2ccc(Cl)cc2)cc1", "TGI": "> 100 µM"},
      {"smiles": "Fc1ccc(C2SCc3nc4ccccc4n32)cc1Cl", "note": "(centres undefined)", "TGI": "58.1 µM"},
      {"smiles": "CC1=N/C(=C\\c2cccc([N+](=O)[O-])c2)C(=O)O1", "TGI": "> 100 µM"},
      {"smiles": "CCCCOC(=O)NC(=O)c1cn(C2CCCCC2)c(=O)[nH]c1=O", "TGI": "> 100 µM"},
      {"smiles": "CCOC(=O)CCn1[nH]c(=O)c(Cl)c(Cl)c1=O", "TGI": "> 100 µM"},
      {"smiles": "Nc1ncn(C2CC(O)C(CO)O2)c(=O)n1", "note": "(centres undefined)", "TGI": "> 375 µM"},
      {"smiles": "C/C=C1/C(=C/c2[nH]c(/C=c3\\[nH]/c(=C/C4=NC(=O)C(CC)=C4C)c(C)c3CCC(=O)O)c(CCC(=O)O)c2C)NC(=O)C1C", "note": "(centres undefined)", "GI50": "> 150 µg/mL", "TGI": "> 150 µg/mL"},
      {"smiles": "N#CCc1ccc(C(C#N)/C(CCCC(=O)Nc2cccc([N+](=O)[O-])c2)=N/NC(N)=S)cc1", "note": "(centres undefined)", "TGI": "> 100 µM"},
      {"smiles": "CC(C)c1ccc(C(c2ccc(OCC(=O)O)cc2)c2ccc(C(C)C)cc(=O)c2O)c(O)c(=O)c1", "TGI": "20.4 µM"},
      {"smiles": "COc1ccc2c3c(coc13)C(CCC(=O)O)CC2", "note": "(centres undefined)", "TGI": "> 100 µM"},
      {"smiles": "O=c1[nH]c(=O)n(C2OC(CO)C(O)C(O)C2O)cc1F", "note": "(centres undefined)", "TGI": "> 100 µM"},
      {"smiles": "c1cc[c]([Pb]([c]2ccccc2)[c]2ccccc2)cc1", "GI50": "3340 nM", "TGI": "15.8 µM"},
      {"smiles": "CC(C)(C)c1ccc(O)c(CN(Cc2cc(C(C)(C)C)ccc2O)c2ccccc2)c1", "TGI": "40.8 µM"},
      {"smiles": "COC1=CC2(C=CC1=O)c1cc(OC)c(OC)cc1CCN2C(=O)c1ccccc1", "note": "(centres undefined)", "TGI": "> 100 µM"},
      {"smiles": "CC(C)(C)c1cc(NC(=O)Cc2ccc(-c3cnc4cc(-c5cnn(CCN6CCOCC6)c5)ccc4n3)cc2)no1", "GI50": "627 nM and 1080 nM and 131 nM", "TGI": "50 µM and > 100 µM and > 3 µM"},
      {"smiles": "Cc1ccc2[nH]c(C(=O)NN3C(=O)C(C)SC34CCCC(C)C4)c(-c3ccccc3)c2c1", "note": "(centres undefined)", "GI50": "> 100000 nM", "TGI": "> 100 µM"}
    ]},
    {"tested_on": "DU-145 prostate", "assay": "NCI anticancer screen, dose series, 48 h", "values": [
      {"smiles": "Clc1ccc(-c2c(C3=NCCCN3)nnn2-c2ccc(Cl)cc2)cc1", "TGI": "> 100 µM"},
      {"smiles": "Nc1ncn(C2CC(O)C(CO)O2)c(=O)n1", "note": "(centres undefined)", "TGI": "> 375 µM"},
      {"smiles": "O=c1[nH]c(=O)n(C2OC(CO)C(O)C(O)C2O)cc1F", "note": "(centres undefined)", "TGI": "> 100 µM"},
      {"smiles": "CC(C)(C)c1ccc(O)c(CN(Cc2cc(C(C)(C)C)ccc2O)c2ccccc2)c1", "TGI": "38.3 µM"},
      {"smiles": "CC(C)(C)c1cc(NC(=O)Cc2ccc(-c3cnc4cc(-c5cnn(CCN6CCOCC6)c5)ccc4n3)cc2)no1", "GI50": "432 nM and 494 nM and 75.7 nM", "TGI": "50 µM and > 100 µM and > 3 µM"},
      {"smiles": "Cc1ccc2[nH]c(C(=O)NN3C(=O)C(C)SC34CCCC(C)C4)c(-c3ccccc3)c2c1", "note": "(centres undefined)", "GI50": "> 100000 nM", "TGI": "> 100 µM"}
    ]}
  ]
}
